According to the supplement of paper PMC10307832:

Tests used:
Test in all cases: relative viability (nuclei count vs DMSO), 5 days (fraction); higher = more cells survive
NCI-H647 = test system: NCI-H647
Procedure, shortened: (§1)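 Lung cancer cell lines in 1536-well plates were dosed by pin tool the day after seeding, either with one drug alone or with a fixed anchor-drug dose plus five library-drug doses (not always all listed) in √10 steps. After 5 days, cells were fixed and their nuclei stained in one step (final 0.05% Triton X-100, 1% formaldehyde, 1 ug/ml Hoechst), then counted on 4× images. Relative viability is the nuclei count in treated wells divided by that in vehicle wells. Values are medians of duplicate plates.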

Calu-6 = test system: Calu-6
Procedure, shortened: as §1

IA-LM = test system: IA-LM
Procedure, shortened: as §1

A549 = test system: A549
Procedure, shortened: as §1

NCI-H2009 = test system: NCI-H2009
Procedure, shortened: as §1

NCI-H1299 = test system: NCI-H1299
Procedure, shortened: as §1

EBC-1 = test system: EBC-1
Procedure, shortened: as §1

LOU-NH91 = test system: LOU-NH91
Procedure, shortened: as §1

NCI-H1703 = test system: NCI-H1703
Procedure, shortened: as §1

NCI-H2405 = test system: NCI-H2405
Procedure, shortened: as §1

## Cc1csc(=NC2CCCCC2)n1/N=C/c1ccc(O)c(O)c1O [MIM1] + C[C@@H](Oc1cc(-c2cnn(C3CCNCC3)c2)cnc1N)c1c(Cl)ccc(F)c1Cl [Crizotinib] (partner 1 µM)
NCI-H647; first compound 0.2 µM
  relative viability: 1.05
NCI-H647; first compound 0.6325 µM
  relative viability: 1.17
NCI-H647; first compound 2 µM
  relative viability: 1.02
NCI-H647; first compound 6.325 µM
  relative viability: 0.719
NCI-H647; first compound 20 µM
  relative viability: 0.354
Calu-6; first compound 0.2 µM
  relative viability: 0.785
Calu-6; first compound 0.6325 µM
  relative viability: 0.826
Calu-6; first compound 2 µM
  relative viability: 0.696
Calu-6; first compound 6.325 µM
  relative viability: 0.36
Calu-6; first compound 20 µM
  relative viability: 0.186
IA-LM; first compound 0.2 µM
  relative viability: 0.697
IA-LM; first compound 0.6325 µM
  relative viability: 0.789
IA-LM; first compound 2 µM
  relative viability: 0.773
IA-LM; first compound 6.325 µM
  relative viability: 0.443
IA-LM; first compound 20 µM
  relative viability: 0.204
A549; first compound 0.2 µM
  relative viability: 0.709
A549; first compound 0.6325 µM
  relative viability: 0.715
A549; first compound 2 µM
  relative viability: 0.762
A549; first compound 6.325 µM
  relative viability: 0.402
A549; first compound 20 µM
  relative viability: 0.227
NCI-H2009; first compound 0.2 µM
  relative viability: 0.964
NCI-H2009; first compound 0.6325 µM
  relative viability: 1.1
NCI-H2009; first compound 2 µM
  relative viability: 1.1
NCI-H2009; first compound 6.325 µM
  relative viability: 1.02
NCI-H2009; first compound 20 µM
  relative viability: 0.732
NCI-H1299; first compound 0.2 µM
  relative viability: 0.857
NCI-H1299; first compound 0.6325 µM
  relative viability: 0.975
NCI-H1299; first compound 2 µM
  relative viability: 0.975
NCI-H1299; first compound 6.325 µM
  relative viability: 0.966
NCI-H1299; first compound 20 µM
  relative viability: 0.904
EBC-1; first compound 0.2 µM
  relative viability: 0.207
EBC-1; first compound 0.6325 µM
  relative viability: 0.196
EBC-1; first compound 2 µM
  relative viability: 0.195
EBC-1; first compound 6.325 µM
  relative viability: 0.196
EBC-1; first compound 20 µM
  relative viability: 0.227
LOU-NH91; first compound 0.2 µM
  relative viability: 0.748
LOU-NH91; first compound 0.6325 µM
  relative viability: 0.728
LOU-NH91; first compound 2 µM
  relative viability: 0.683
LOU-NH91; first compound 6.325 µM
  relative viability: 0.675
LOU-NH91; first compound 20 µM
  relative viability: 0.392
NCI-H1703; first compound 0.2 µM
  relative viability: 0.534
NCI-H1703; first compound 0.6325 µM
  relative viability: 0.482
NCI-H1703; first compound 2 µM
  relative viability: 0.455
NCI-H1703; first compound 6.325 µM
  relative viability: 0.175
NCI-H1703; first compound 20 µM
  relative viability: 0.127
NCI-H2405; first compound 0.2 µM
  relative viability: 0.883
NCI-H2405; first compound 0.6325 µM
  relative viability: 0.864
NCI-H2405; first compound 2 µM
  relative viability: 0.912
NCI-H2405; first compound 6.325 µM
  relative viability: 0.701
NCI-H2405; first compound 20 µM
  relative viability: 0.508

## CN1CCN(CCOc2cc(OC3CCOCC3)c3c(Nc4c(Cl)ccc5c4OCO5)ncnc3c2)CC1 [Saracatinib] + CS(=O)(=O)N1CCN(Cc2cc3nc(-c4cccc5[nH]ncc45)nc(N4CCOCC4)c3s2)CC1 [Pictilisib] (partner 1 µM)
NCI-H647; first compound 0.02 µM
  relative viability: 0.386
NCI-H647; first compound 0.2 µM
  relative viability: 0.387
NCI-H647; first compound 0.6325 µM
  relative viability: 0.425
NCI-H647; first compound 2 µM
  relative viability: 0.216
Calu-6; first compound 0.02 µM
  relative viability: 0.858
Calu-6; first compound 0.2 µM
  relative viability: 0.645
Calu-6; first compound 0.6325 µM
  relative viability: 0.702
Calu-6; first compound 2 µM
  relative viability: 0.613
IA-LM; first compound 0.02 µM
  relative viability: 0.33
IA-LM; first compound 0.2 µM
  relative viability: 0.445
IA-LM; first compound 0.6325 µM
  relative viability: 0.515
IA-LM; first compound 2 µM
  relative viability: 0.37
A549; first compound 0.02 µM
  relative viability: 0.491
A549; first compound 0.2 µM
  relative viability: 0.412
A549; first compound 0.6325 µM
  relative viability: 0.515
A549; first compound 2 µM
  relative viability: 0.399
NCI-H2009; first compound 0.02 µM
  relative viability: 0.759
NCI-H2009; first compound 0.2 µM
  relative viability: 0.465
NCI-H2009; first compound 0.6325 µM
  relative viability: 0.644
NCI-H2009; first compound 2 µM
  relative viability: 0.4
NCI-H1299; first compound 0.02 µM
  relative viability: 0.69
NCI-H1299; first compound 0.2 µM
  relative viability: 0.528
NCI-H1299; first compound 0.6325 µM
  relative viability: 0.387
NCI-H1299; first compound 2 µM
  relative viability: 0.256
EBC-1; first compound 0.02 µM
  relative viability: 0.445
EBC-1; first compound 0.2 µM
  relative viability: 0.397
EBC-1; first compound 0.6325 µM
  relative viability: 0.387
EBC-1; first compound 2 µM
  relative viability: 0.429
LOU-NH91; first compound 0.02 µM
  relative viability: 0.535
LOU-NH91; first compound 0.2 µM
  relative viability: 0.442
LOU-NH91; first compound 0.6325 µM
  relative viability: 0.502
LOU-NH91; first compound 2 µM
  relative viability: 0.437
NCI-H1703; first compound 0.02 µM
  relative viability: 0.228
NCI-H1703; first compound 0.2 µM
  relative viability: 0.242
NCI-H1703; first compound 0.6325 µM
  relative viability: 0.181
NCI-H1703; first compound 2 µM
  relative viability: 0.203
NCI-H2405; first compound 0.02 µM
  relative viability: 0.441
NCI-H2405; first compound 0.2 µM
  relative viability: 0.366
NCI-H2405; first compound 0.6325 µM
  relative viability: 0.352
NCI-H2405; first compound 2 µM
  relative viability: 0.22

## CCNC(=O)c1noc(-c2cc(C(C)C)c(O)cc2O)c1-c1ccc(CN2CCOCC2)cc1 [Luminespib] + Cc1nc(NC(=O)N2CCC[C@H]2C(N)=O)sc1-c1ccnc(C(C)(C)C(F)(F)F)c1 [Alpelisib] (partner 2 µM)
NCI-H647; first compound 0.002 µM
  relative viability: 1.25
NCI-H647; first compound 0.006325 µM
  relative viability: 1.12
NCI-H647; first compound 0.02 µM
  relative viability: 1.03
NCI-H647; first compound 0.06325 µM
  relative viability: 0.103
NCI-H647; first compound 0.2 µM
  relative viability: 0.0917
Calu-6; first compound 0.002 µM
  relative viability: 0.975
Calu-6; first compound 0.006325 µM
  relative viability: 0.949
Calu-6; first compound 0.02 µM
  relative viability: 0.783
Calu-6; first compound 0.06325 µM
  relative viability: 0.131
Calu-6; first compound 0.2 µM
  relative viability: 0.12
IA-LM; first compound 0.002 µM
  relative viability: 0.752
IA-LM; first compound 0.006325 µM
  relative viability: 0.788
IA-LM; first compound 0.02 µM
  relative viability: 0.268
IA-LM; first compound 0.06325 µM
  relative viability: 0.0487
IA-LM; first compound 0.2 µM
  relative viability: 0.05
A549; first compound 0.002 µM
  relative viability: 0.804
A549; first compound 0.006325 µM
  relative viability: 0.71
A549; first compound 0.02 µM
  relative viability: 0.255
A549; first compound 0.06325 µM
  relative viability: 0.0392
A549; first compound 0.2 µM
  relative viability: 0.036
NCI-H2009; first compound 0.002 µM
  relative viability: 1.29
NCI-H2009; first compound 0.006325 µM
  relative viability: 1.02
NCI-H2009; first compound 0.02 µM
  relative viability: 1.28
NCI-H2009; first compound 0.06325 µM
  relative viability: 0.698
NCI-H2009; first compound 0.2 µM
  relative viability: 0.0841
NCI-H1299; first compound 0.002 µM
  relative viability: 1
NCI-H1299; first compound 0.006325 µM
  relative viability: 1
NCI-H1299; first compound 0.02 µM
  relative viability: 1.15
NCI-H1299; first compound 0.06325 µM
  relative viability: 0.961
NCI-H1299; first compound 0.2 µM
  relative viability: 0.483
EBC-1; first compound 0.002 µM
  relative viability: 0.825
EBC-1; first compound 0.006325 µM
  relative viability: 0.741
EBC-1; first compound 0.02 µM
  relative viability: 0.228
EBC-1; first compound 0.06325 µM
  relative viability: 0.146
EBC-1; first compound 0.2 µM
  relative viability: 0.131
LOU-NH91; first compound 0.002 µM
  relative viability: 0.717
LOU-NH91; first compound 0.006325 µM
  relative viability: 0.646
LOU-NH91; first compound 0.02 µM
  relative viability: 0.543
LOU-NH91; first compound 0.06325 µM
  relative viability: 0.43
LOU-NH91; first compound 0.2 µM
  relative viability: 0.381
NCI-H1703; first compound 0.002 µM
  relative viability: 0.378
NCI-H1703; first compound 0.006325 µM
  relative viability: 0.367
NCI-H1703; first compound 0.02 µM
  relative viability: 0.186
NCI-H1703; first compound 0.06325 µM
  relative viability: 0.133
NCI-H1703; first compound 0.2 µM
  relative viability: 0.116
NCI-H2405; first compound 0.002 µM
  relative viability: 0.968
NCI-H2405; first compound 0.006325 µM
  relative viability: 0.513
NCI-H2405; first compound 0.02 µM
  relative viability: 0.483
NCI-H2405; first compound 0.06325 µM
  relative viability: 0.19
NCI-H2405; first compound 0.2 µM
  relative viability: 0.15
